Patent US9809623B2, “α4β7 peptide monomer and dimer antagonists” (Protagonist Therapeutics, Inc., priority 2014, dated 2017)
Where two headings read alike, the source gives them in different places. Numbered stars: 1 amine (or outer) side, 2 acyl side, 3 side chain; on linkers, the order of the positions; unused ones are H or OH. Bridge positions count the residues as written; N and C are the ends. Square brackets hold non-standard residues; d marks the D form. Peptide text beside a SMILES is read from it. I, II: the chains in the order shown. ξ: configuration not given here. X2 = O=C(CCOCCOCCOCCOCCOCCOCCOCCOCCOCCOCCOCCOCCOCCOCCOCCOCCOCCOCCOCCOCCOCCOCCOCCOCCOCCC(=O)[*:2])[*:1]; Phe(4-tBu) = CC(C)(C)c1ccc(C[C@H](N)C(=O)O)cc1; 1Nal = N[C@@H](Cc1cccc2ccccc12)C(=O)O; 2Nal = N[C@@H](Cc1ccc2ccccc2c1)C(=O)O; Diglycolyl = O=C(COCC(=O)[*:2])[*:1]; NMeR = CN[C@@H](CCCNC(=N)N)C(=O)O; β3hE = N[C@@H](CCC(=O)O)CC(=O)O; Thr(3ξ) = CC(O)[C@H](N)C(=O)O; NMeK = CN[C@@H](CCCCN)C(=O)O; Pen = CC(C)(S)[C@H](N)C(=O)O

Key:
[1] = molecular target: T1, α4β1 (Homo sapiens, UniProt P05556+P13612, DEL729-798); assay: α4β1-VCAM Competition ELISA; format: binding
T1 construct: purchased R&D Systems 5668-A4
Outline: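 Recombinant α4β1 (60 nM final) competed with serially diluted peptides (top final 100 μM) for VCAM-1 Fc coated at 400 ng/well, in Tris pH 7.6 with 1 mM MnCl2 or MgCl2, for 2 h at 37 °C. Bound integrin was detected with anti-CD49d 9F10 plus HRP anti-mouse IgG, using TMB read at 450 nm.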

[2] = molecular target: α4β7 (Homo sapiens, UniProt P13612+P26010); assay: α4β7-MAdCAM Cell Adhesion Assay (RPMI 8866 human cells); format: cell-based; design: host or cells: RPMI 8866 human B lymphoblastoid cells
Outline: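 Washed RPMI 8866 cells (200,000/well) in DMEM with 0.1% BSA, 10 mM HEPES pH 7, 1 mM MnCl2 adhered to rh MAdCAM-1/Fc-coated wells with serially diluted peptides, 30-45 min at 37 °C. After three washes, bound cells quantified by MTT, A570, cell-free background subtracted for dose response.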

[3] = Simulated Intestinal Fluid (SIF) Stability Assay; format: in vitro ADME, porcine; conditions: pig, simulated intestinal fluid (SIF) with 1% porcine pancreatin, pH 6.5, Table 4-C, t1/2; > means assay stopped at that time; read-out: SIF (porcine) Min
Outline: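 Peptides (22 μM final) incubated at 37 °C in FASSIF (pH 6.5) with 1% porcine pancreatin; aliquots quenched at various times and analyzed by LC-MS/MS against internal standard. Half-life from first-order exponential decay fit of percent remaining.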

[4] = Table 4-B, read-out: ELISA_α4β1 IC50
[5] = Table 4-B, read-out: Cell Adhesion α4β7 IC50
[6] = Table 3-B, Selectivity (α4β1), range classes, read-out: α4β1 ELISA IC50
[7] = Table 3-B, Potency (α4β7), range classes, read-out: α4β7 cell (Hu) IC50

Chain of α4β7 (P13612 34-1032): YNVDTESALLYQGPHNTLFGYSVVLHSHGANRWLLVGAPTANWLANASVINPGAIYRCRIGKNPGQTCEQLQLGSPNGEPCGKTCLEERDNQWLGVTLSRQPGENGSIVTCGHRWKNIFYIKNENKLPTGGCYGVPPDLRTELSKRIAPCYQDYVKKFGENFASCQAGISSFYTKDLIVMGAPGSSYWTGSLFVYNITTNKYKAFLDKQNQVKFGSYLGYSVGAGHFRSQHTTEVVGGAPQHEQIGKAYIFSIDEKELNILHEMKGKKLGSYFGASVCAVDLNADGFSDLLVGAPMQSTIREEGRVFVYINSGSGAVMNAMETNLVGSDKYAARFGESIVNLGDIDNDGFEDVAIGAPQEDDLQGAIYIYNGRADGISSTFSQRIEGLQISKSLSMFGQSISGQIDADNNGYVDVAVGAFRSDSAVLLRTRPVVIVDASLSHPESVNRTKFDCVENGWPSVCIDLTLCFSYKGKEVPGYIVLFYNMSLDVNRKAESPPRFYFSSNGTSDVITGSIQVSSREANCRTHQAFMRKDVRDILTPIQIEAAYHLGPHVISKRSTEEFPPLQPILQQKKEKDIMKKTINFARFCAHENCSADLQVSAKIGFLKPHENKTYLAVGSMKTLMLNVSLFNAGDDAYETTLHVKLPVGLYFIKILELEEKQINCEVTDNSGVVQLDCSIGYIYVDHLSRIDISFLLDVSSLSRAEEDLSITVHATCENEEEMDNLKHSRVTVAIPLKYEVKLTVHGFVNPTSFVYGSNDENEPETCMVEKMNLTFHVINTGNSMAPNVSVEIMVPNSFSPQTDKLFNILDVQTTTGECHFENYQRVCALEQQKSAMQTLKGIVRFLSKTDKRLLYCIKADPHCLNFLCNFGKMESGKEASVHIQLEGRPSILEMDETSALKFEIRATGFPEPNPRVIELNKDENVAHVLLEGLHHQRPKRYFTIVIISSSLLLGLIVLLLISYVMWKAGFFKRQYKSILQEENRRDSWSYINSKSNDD
Chain of α4β7 (P26010 20-798): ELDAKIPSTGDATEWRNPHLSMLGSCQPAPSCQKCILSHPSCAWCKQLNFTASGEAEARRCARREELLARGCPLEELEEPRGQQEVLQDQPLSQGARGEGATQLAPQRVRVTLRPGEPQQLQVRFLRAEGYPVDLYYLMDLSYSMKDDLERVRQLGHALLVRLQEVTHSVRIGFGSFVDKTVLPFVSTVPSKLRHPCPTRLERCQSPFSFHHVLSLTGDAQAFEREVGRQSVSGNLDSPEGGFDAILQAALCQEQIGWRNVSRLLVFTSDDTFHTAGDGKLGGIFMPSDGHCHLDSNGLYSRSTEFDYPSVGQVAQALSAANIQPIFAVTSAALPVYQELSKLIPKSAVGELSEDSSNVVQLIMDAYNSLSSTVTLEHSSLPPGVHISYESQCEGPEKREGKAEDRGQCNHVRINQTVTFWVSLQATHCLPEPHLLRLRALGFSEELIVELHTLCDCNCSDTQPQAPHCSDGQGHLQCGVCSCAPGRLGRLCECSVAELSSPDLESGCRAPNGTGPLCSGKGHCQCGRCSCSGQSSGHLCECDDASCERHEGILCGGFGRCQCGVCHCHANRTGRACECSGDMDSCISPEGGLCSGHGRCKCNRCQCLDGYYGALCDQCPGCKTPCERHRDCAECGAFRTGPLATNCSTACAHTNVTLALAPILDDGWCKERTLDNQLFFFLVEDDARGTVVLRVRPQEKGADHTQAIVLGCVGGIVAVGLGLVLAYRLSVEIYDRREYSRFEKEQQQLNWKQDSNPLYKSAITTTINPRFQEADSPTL
T1 sequence (P13612 34-977 limits assumed, stated change not applied): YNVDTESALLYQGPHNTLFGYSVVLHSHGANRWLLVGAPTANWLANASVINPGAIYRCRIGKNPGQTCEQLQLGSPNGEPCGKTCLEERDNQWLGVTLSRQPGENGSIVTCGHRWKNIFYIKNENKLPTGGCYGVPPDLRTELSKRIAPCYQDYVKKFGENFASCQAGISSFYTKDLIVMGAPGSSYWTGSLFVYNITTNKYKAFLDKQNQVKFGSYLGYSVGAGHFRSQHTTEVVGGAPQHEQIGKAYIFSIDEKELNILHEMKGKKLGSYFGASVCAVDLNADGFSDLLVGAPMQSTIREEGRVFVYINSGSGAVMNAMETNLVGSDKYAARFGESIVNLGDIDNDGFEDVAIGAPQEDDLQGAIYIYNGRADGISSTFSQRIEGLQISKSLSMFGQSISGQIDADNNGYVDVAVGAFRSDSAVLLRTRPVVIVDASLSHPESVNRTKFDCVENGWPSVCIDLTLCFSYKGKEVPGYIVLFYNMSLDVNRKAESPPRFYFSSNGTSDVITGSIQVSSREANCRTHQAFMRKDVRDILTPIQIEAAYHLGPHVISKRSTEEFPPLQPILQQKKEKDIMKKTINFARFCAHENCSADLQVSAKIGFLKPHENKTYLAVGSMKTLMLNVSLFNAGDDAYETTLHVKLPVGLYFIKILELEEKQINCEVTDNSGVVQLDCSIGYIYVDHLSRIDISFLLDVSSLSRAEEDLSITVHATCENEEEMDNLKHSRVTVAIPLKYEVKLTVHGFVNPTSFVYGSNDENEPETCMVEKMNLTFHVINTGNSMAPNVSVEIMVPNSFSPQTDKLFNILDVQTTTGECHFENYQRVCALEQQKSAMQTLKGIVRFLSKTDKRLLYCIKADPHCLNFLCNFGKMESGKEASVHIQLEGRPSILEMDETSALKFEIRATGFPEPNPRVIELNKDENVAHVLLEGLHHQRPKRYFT
T1 sequence (P05556 21-728 limits assumed, stated change not applied): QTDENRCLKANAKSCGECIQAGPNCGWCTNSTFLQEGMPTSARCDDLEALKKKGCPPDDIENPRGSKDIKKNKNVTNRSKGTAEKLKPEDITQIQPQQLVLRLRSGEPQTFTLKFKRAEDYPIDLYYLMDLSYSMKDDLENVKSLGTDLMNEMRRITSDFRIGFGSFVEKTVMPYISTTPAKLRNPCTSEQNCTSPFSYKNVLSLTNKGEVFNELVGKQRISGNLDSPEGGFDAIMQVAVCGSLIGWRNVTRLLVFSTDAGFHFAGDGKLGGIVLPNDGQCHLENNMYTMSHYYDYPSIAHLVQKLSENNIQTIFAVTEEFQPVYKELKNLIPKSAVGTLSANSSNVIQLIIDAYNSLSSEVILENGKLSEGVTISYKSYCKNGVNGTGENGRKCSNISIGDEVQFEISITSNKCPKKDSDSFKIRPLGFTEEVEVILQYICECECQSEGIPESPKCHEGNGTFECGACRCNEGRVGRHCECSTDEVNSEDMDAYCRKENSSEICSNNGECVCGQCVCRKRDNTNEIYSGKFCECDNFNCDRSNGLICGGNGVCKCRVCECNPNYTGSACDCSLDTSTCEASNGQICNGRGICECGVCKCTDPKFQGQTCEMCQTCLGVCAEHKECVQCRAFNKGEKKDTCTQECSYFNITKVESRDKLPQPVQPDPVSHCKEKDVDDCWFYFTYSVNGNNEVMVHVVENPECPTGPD

SMILES: CC(=O)N[C@H]1CSSC[C@@H](C(=O)NCC(=O)N[C@@H](CCC(=O)O)C(N)=O)NC(=O)[C@H](CC(C)C)NC(=O)[C@H]([C@@H](C)O)NC(=O)[C@H](CC(=O)O)NC(=O)[C@H](CO)NC(=O)[C@H](CCCNC(=N)N)N(C)C1=O [compound 198, Ac-C-N-Me-R-S-D-T-L-C-G-E-NH2] (Ac-C[NMeR]SDTLCGE-NH2; disulfide 1-7)
- IC50 [1, 4]: 1290 nM
- IC50 [2, 5]: 1120 nM

SMILES: CC(=O)N[C@@H]1C(=O)N[C@@H](CCCNC(=N)N)C(=O)N[C@@H](CO)C(=O)N[C@@H](CC(=O)O)C(=O)N[C@@H]([C@@H](C)O)C(=O)N[C@@H](CC(C)C)C(=O)N[C@H](C(=O)N[C@H](CCCCNC(=O)COCC(=O)NCCCC[C@@H](NC(=O)[C@@H]2CSSC(C)(C)[C@H](NC(C)=O)C(=O)N[C@@H](CCCNC(=N)N)C(=O)N[C@@H](CO)C(=O)N[C@@H](CC(=O)O)C(=O)N[C@@H]([C@@H](C)O)C(=O)N[C@@H](CC(C)C)C(=O)N2)C(N)=O)C(N)=O)CSSC1(C)C [compound 207, (Ac-Pen-R-S-D-T-L-C-k-NH2)2-DIG] (I: Ac-[Pen]RSDTLC[dK]-NH2 / II: Ac-[Pen]RSDTLC[dK]-NH2; disulfide I:1-I:7, II:1-II:7 (inferred); linker I:8-II:8 via Diglycolyl (inferred))
- half-life at 22 μM [3]: < 0.333 h
- IC50 [2, 5]: 49 nM

SMILES: CC(=O)N[C@H]1CSSC[C@@H](C(=O)NCC(=O)N[C@@H](CCC(=O)O)C(=O)N[C@@H](CCCCNC(=O)CCOCCOCCOCCOCCOCCOCCOCCOCCOCCOCCOCCOCCOCCOCCOCCOCCOCCOCCOCCOCCOCCOCCOCCOCCOCCC(=O)NCCCC[C@H](NC(=O)[C@H](CCC(=O)O)NC(=O)CNC(=O)[C@@H]2CSSC[C@H](NC(C)=O)C(=O)N[C@@H](CCCNC(=N)N)C(=O)N[C@@H](CO)C(=O)N[C@@H](CC(=O)O)C(=O)N[C@@H]([C@@H](C)O)C(=O)N[C@@H](CC(C)C)C(=O)N2)C(N)=O)C(N)=O)NC(=O)[C@H](CC(C)C)NC(=O)[C@H]([C@@H](C)O)NC(=O)[C@H](CC(=O)O)NC(=O)[C@H](CO)NC(=O)[C@H](CCCNC(=N)N)NC1=O [compound 197, (Ac-C-R-S-D-T-L-C-G-E-K-NH2)2-PEG25] (I: Ac-CRSDTLCGEK-NH2 / II: Ac-CRSDTLCGEK-NH2; disulfide I:1-I:7, II:1-II:7; linker I:10-II:10 via X2)
- IC50 [1, 4]: 964 nM
- IC50 [2, 5]: 301 nM

SMILES: CC(=O)N[C@@H]1C(=O)N(C)[C@@H](CCCNC(=N)N)C(=O)N[C@@H](CO)C(=O)N[C@@H](CC(=O)O)C(=O)N[C@@H]([C@@H](C)O)C(=O)N[C@@H](CC(C)C)C(=O)N[C@H](C(=O)N[C@@H](Cc2cccc3ccccc23)C(=O)N[C@@H](CCC(=O)O)CC(=O)N(C)[C@@H](CCCCNC(=O)COCC(=O)NCCCC[C@@H](C(N)=O)N(C)C(=O)C[C@H](CCC(=O)O)NC(=O)[C@H](Cc2cccc3ccccc23)NC(=O)[C@H]2NC(=O)[C@H](CC(C)C)NC(=O)[C@H]([C@@H](C)O)NC(=O)[C@H](CC(=O)O)NC(=O)[C@H](CO)NC(=O)[C@H](CCCNC(=N)N)N(C)C(=O)[C@@H](NC(C)=O)C(C)(C)SSC2(C)C)C(N)=O)C(C)(C)SSC1(C)C [compound 142] (I: Ac-[Pen][NMeR]SDTL[Pen][1Nal][β3hE][NMeK]-NH2 / II: Ac-[Pen][NMeR]SDTL[Pen][1Nal][β3hE][NMeK]-NH2; disulfide I:1-I:7, II:1-II:7; linker I:10-II:10 via Diglycolyl)
- IC50 [1, 6]: 500 to 1000 nM
- IC50 [2, 7]: < 10 nM

SMILES: CC(=O)N[C@@H]1C(=O)N(C)[C@@H](CCCNC(=N)N)C(=O)N[C@@H](CO)C(=O)N[C@@H](CC(=O)O)C(=O)N[C@@H]([C@@H](C)O)C(=O)N[C@@H](CC(C)C)C(=O)N[C@H](C(=O)N[C@@H](Cc2c[nH]c3ccccc23)C(=O)N[C@@H](CCC(=O)O)C(=O)N[C@H](CCCCNC(=O)COCC(=O)NCCCC[C@@H](NC(=O)[C@H](CCC(=O)O)NC(=O)[C@H](Cc2c[nH]c3ccccc23)NC(=O)[C@H]2NC(=O)[C@H](CC(C)C)NC(=O)[C@H]([C@@H](C)O)NC(=O)[C@H](CC(=O)O)NC(=O)[C@H](CO)NC(=O)[C@H](CCCNC(=N)N)N(C)C(=O)[C@@H](NC(C)=O)C(C)(C)SSC2(C)C)C(=O)O)C(=O)O)C(C)(C)SSC1(C)C [compound 78] (I: Ac-[Pen][NMeR]SDTL[Pen]WE[dK]-OH / II: Ac-[Pen][NMeR]SDTL[Pen]WE[dK]-OH; disulfide I:1-I:7, II:1-II:7; linker I:10-II:10 via Diglycolyl)
- IC50 [1, 6]: 100 to 500 nM
- IC50 [2, 7]: < 10 nM

SMILES: CC(=O)N[C@@H]1C(=O)N(C)[C@@H](CCCNC(=N)N)C(=O)N[C@@H](CO)C(=O)N[C@@H](CC(=O)O)C(=O)N[C@@H](C(C)O)C(=O)N[C@@H](CC(C)C)C(=O)N[C@H](C(=O)N[C@@H](Cc2ccc(C(C)(C)C)cc2)C(=O)N[C@@H](CCC(=O)O)CC(=O)N[C@H](CCCCNC(=O)COCC(=O)NCCCC[C@@H](NC(=O)C[C@H](CCC(=O)O)NC(=O)[C@H](Cc2ccc(C(C)(C)C)cc2)NC(=O)[C@H]2NC(=O)[C@H](CC(C)C)NC(=O)[C@H](C(C)O)NC(=O)[C@H](CC(=O)O)NC(=O)[C@H](CO)NC(=O)[C@H](CCCNC(=N)N)N(C)C(=O)[C@@H](NC(C)=O)C(C)(C)SSC2(C)C)C(N)=O)C(N)=O)C(C)(C)SSC1(C)C (stereo partly drawn) [Peptide X, [Ac-Pen-(N-Me-Arg)-Ser-Asp-Thr-Leu-Pen-(Phe(4-tBu))-(β-homoGlu)-(D-Lys)]2-DIG] (I: Ac-[Pen][NMeR]SD[Thr(3ξ)]L[Pen][Phe(4-tBu)][β3hE][dK]-NH2 / II: Ac-[Pen][NMeR]SD[Thr(3ξ)]L[Pen][Phe(4-tBu)][β3hE][dK]-NH2; disulfide I:1-I:7, II:1-II:7; linker I:10-II:10 via Diglycolyl)
- IC50 ([1]; 1 mM Mg^2+ binding conditions, read-out: IC50 for α4β1, competition ELISA): > 10000 nM
- IC50 ([1]; b977, second statement, conditions not stated, read-out: IC50 for α4β1): > 100000 nM
- IC50 ([2]; human B cell lymphoblastoid RPMI8866, read-out: IC50 for blocking adhesion of RPMI8866 cell line to MAdCAM-1): 0.72 nM

SMILES: CC(=O)N[C@@H]1C(=O)N(C)[C@@H](CCCNC(=N)N)C(=O)N[C@@H](CO)C(=O)N[C@@H](CC(=O)O)C(=O)N[C@@H]([C@@H](C)O)C(=O)N[C@@H](CC(C)C)C(=O)N[C@H](C(=O)N[C@@H](Cc2ccc3ccccc3c2)C(=O)N[C@@H](CCC(=O)O)C(=O)N[C@H](CCCCN)C(N)=O)C(C)(C)SSC1(C)C [compound 210, Ac-Pen-N-Me-R-S-D-T-L-Pen-2-Nal-E-k-NH2] (Ac-[Pen][NMeR]SDTL[Pen][2Nal]E[dK]-NH2; disulfide 1-7)
- IC50 [1, 4]: 200 nM
- half-life at 22 μM [3]: > 5 h

SMILES: CC(=O)N[C@@H]1C(=O)N(C)[C@@H](CCCNC(=N)N)C(=O)N[C@@H](CO)C(=O)N[C@@H](CC(=O)O)C(=O)N[C@@H]([C@@H](C)O)C(=O)N[C@@H](CC(C)C)C(=O)N[C@H](C(=O)N[C@@H](Cc2c[nH]c3ccccc23)C(=O)N[C@H](CCCCN)C(N)=O)C(C)(C)SSC1(C)C [compound 208, Ac-Pen-N-Me-R-S-D-T-L-Pen-W-k-NH2] (Ac-[Pen][NMeR]SDTL[Pen]W[dK]-NH2; disulfide 1-7)
- half-life at 22 μM [3]: > 6 h
- IC50 [2, 5]: 412 nM
